Results reported in US11053204B2, “Pyrimidinyloxy benzene derivatives as herbicides” (FMC Corporation, priority 2015, dated 2021).

Legend:
Assay type in all cases: in vivo
[1] = system: pigweed (Amaranthus retroflexus); test: Test C preemergence, plant response rating; conditions: for Plant response rating, Pigweed: Preemergence; for Pigweed plant response rating: preemergence
[2] = system: pigweed (Amaranthus retroflexus); test: Test C postemergence, plant response rating; conditions: for pest or weed control at 62 g/ha / pest or weed control at 125 g/ha / Pigweed plant response rating: scale 0 to 100 (0 no effect, 100 complete control)
Method in brief: (§1)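 Pre-emergence: seeds sown in loam soil–sand blend or silt loam and sprayed with test chemicals in a non-phytotoxic solvent mixture with surfactant. Post-emergence: plants 2 to 18 cm (1- to 4-leaf stage) in peat-based potting medium, same formulation. Greenhouse 13 to 15 d; visual rating 0 (no effect) to 100 (complete control) versus controls.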

[3] = system: johnsongrass (Sorghum halepense); test: Test C postemergence, plant response rating; conditions: for Plant response rating, Johnsongrass: scale 0 to 100; for Johnsongrass plant response rating: scale 0 to 100 (0 no effect, 100 complete control)
Method in brief: as §1

[4] = system: johnsongrass (Sorghum halepense); test: Test C preemergence, plant response rating
[5] = Amaranthus retroflexus, post-emergence, 16 g ai/ha, scale 0 to 100
[6] = Amaranthus retroflexus, post-emergence, 31 g ai/ha, scale 0 to 100
[7] = Amaranthus retroflexus, post-emergence, 62 g ai/ha
[8] = Amaranthus retroflexus, post-emergence, 125 g ai/ha

SMILES	Plant response rating, Pigweed ([1]; 125 g ai/ha, scale of 0 to 100)	Plant response rating, Pigweed ([1]; 16 g ai/ha, scale 0 to 100)	Plant response rating, Pigweed ([1]; 31 g ai/ha, scale 0 to 100)	Plant response rating, Pigweed ([1]; 62 g ai/ha, scale 0 to 100)	pest or weed control at 16 g/ha [2, 5]	pest or weed control at 31 g/ha [2, 6]	pest or weed control at 62 g/ha [2, 7]	pest or weed control at 125 g/ha [2, 8]	Plant response rating, Pigweed ([2]; 31 g ai/ha, scale 0 to 100)	Pigweed plant response rating ([2]; 62 g ai/ha)	Pigweed plant response rating ([2]; 125 g ai/ha)	further results
CC(CC(F)(F)F)OC(=O)c1c(Br)cccc1Oc1ncc(Cl)cn1 (stereo not shown) [Compound 16, 3,3,3-trifluoro-1-methylpropyl 2-bromo-6-[(5-chloro-2-pyrimidinyl)oxy]benzoate]	95	0	0	50	50%	75%	85%	50%	–	–	–	–
O=C(OCCC(F)(F)F)c1c(Br)cccc1Oc1ncc(Br)cn1 [Compound 33]	100	80	100	100	–	–	–	–	95	98	100	Plant response rating, Johnsongrass ([3]; 16 g ai/ha): 10; Plant response rating, Johnsongrass ([3]; 31 g ai/ha): 10; Johnsongrass plant response rating ([3]; 62 g ai/ha): 20; Johnsongrass plant response rating ([3]; 125 g ai/ha): 20; Plant response rating, Pigweed ([2]; 16 g ai/ha, scale 0 to 100): 95; Plant response rating, Johnsongrass ([4]; 16 g ai/ha, scale 0 to 100): 0; Plant response rating, Johnsongrass ([4]; 31 g ai/ha, scale 0 to 100): 5; Plant response rating, Johnsongrass ([4]; 62 g ai/ha, scale 0 to 100): 25; Plant response rating, Johnsongrass ([4]; 125 g ai/ha, scale of 0 to 100): 35
N#CCCOC(=O)c1c(Br)cccc1Oc1ncc(Cl)cn1 [Compound 7]	–	–	–	–	–	–	–	–	40	60	70	Plant response rating, Pigweed ([2]; 16 g ai/ha, scale 0 to 100): 35
N#Cc1cccc(Oc2ncc(Cl)cn2)c1C(=O)OCCC(F)(F)F [Compound 30]	100	90	95	100	–	–	–	–	–	–	–	Plant response rating, Johnsongrass ([4]; 16 g ai/ha, scale 0 to 100): 0; Plant response rating, Johnsongrass ([4]; 31 g ai/ha, scale 0 to 100): 0; Plant response rating, Johnsongrass ([4]; 62 g ai/ha, scale 0 to 100): 0; Plant response rating, Johnsongrass ([4]; 125 g ai/ha, scale of 0 to 100): 15
C=CCOC(=O)c1c(Br)cccc1Oc1ncc(Cl)cn1 [Compound 22, 2-propen-1-yl 2-bromo-6-[(5-chloro-2-pyrimidinyl)oxy]benzoate]	–	–	–	–	60%	70%	70%	95%	–	–	–	–
O=C(CCC(F)(F)F)c1c(Br)cccc1Oc1ncc(Cl)cn1 [Compound 92]	100	–	100	100	–	–	–	–	90	98	100	Plant response rating, Pigweed ([2]; 16 g ai/ha, scale of 0 to 100): 85
O=C(CCCC(F)(F)F)c1c(Br)cccc1Oc1ncc(Cl)cn1 [Compound 77]	100	85	100	100	–	–	–	–	98	100	100	Plant response rating, Pigweed ([2]; 16 g ai/ha, scale of 0 to 100): 95
C=CCCOC(=O)c1c(Br)cccc1Oc1ncc(Cl)cn1 [Compound 21, 3-buten-1-yl 2-bromo-6-[(5-chloro-2-pyrimidinyl)oxy]benzoate]	100	5	55	98	85%	75%	90%	90%	–	–	–	–
O=C(OCCC(F)(F)F)c1c(Cl)cccc1Oc1ncc(Cl)cn1 [Compound 15, 3,3,3-trifluoropropyl 2-chloro-6-[(5-chloro-2-pyrimidinyl)oxy]benzoate]	100	98	100	100	90%	90%	95%	98%	–	–	–	–
CCCOC(=O)c1c(Br)cccc1Oc1ncc(Cl)cn1 [Compound 13, propyl 2-bromo-6-[(5-chloro-2-pyrimidinyl)oxy]benzoate]	–	5	60	–	75%	70%	–	–	–	–	–	Pigweed plant response rating ([1]; 4 g ai/ha, scale 0 to 100): 5; Pigweed plant response rating ([1]; 8 g ai/ha, scale 0 to 100): 10; pest or weed control at 4 g/ha ([2]; Amaranthus retroflexus, post-emergence, 4 g ai/ha, scale of 0 to 100): 30%; pest or weed control at 8 g/ha ([2]; Amaranthus retroflexus, post-emergence, 8 g ai/ha, scale of 0 to 100): 60%
O=C(OCC(F)(F)F)c1c(Br)cccc1Oc1ncc(Cl)cn1 [Compound 35]	–	–	–	–	–	–	–	–	70	90	98	Plant response rating, Johnsongrass ([3]; 16 g ai/ha): 0; Plant response rating, Johnsongrass ([3]; 31 g ai/ha): 5; Johnsongrass plant response rating ([3]; 62 g ai/ha): 10; Johnsongrass plant response rating ([3]; 125 g ai/ha): 10; Plant response rating, Pigweed ([2]; 16 g ai/ha, scale 0 to 100): 80
O=C(OCCCC(F)(F)F)c1c(Br)cccc1Oc1ncc(Cl)cn1 [Compound 20, 4,4,4-trifluorobutyl 2-bromo-6-[(5-chloro-2-pyrimidinyl)oxy]benzoate]	100	55	55	100	85%	95%	98%	95%	–	–	–	–
O=C(OCC(F)(F)C(F)(F)F)c1c(Br)cccc1Oc1ncc(Cl)cn1 [Compound 23, 2,2,3,3,3-pentafluoropropyl 2-bromo-6-[(5-chloro-2-pyrimidinyl)oxy]benzoate]	–	–	–	–	60%	75%	70%	85%	–	–	–	Plant response rating, Johnsongrass ([3]; 16 g ai/ha): 0; Plant response rating, Johnsongrass ([3]; 31 g ai/ha): 15; Johnsongrass plant response rating ([3]; 62 g ai/ha): 15; Johnsongrass plant response rating ([3]; 125 g ai/ha): 20
